Results from ChEMBL document CHEMBL1201862, “PubChem BioAssay data set” (2004).
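1) Cells in 96-well plates. 2) Compound, 48 h, 5 concentrations. 3) Linear interpolation between surrounding doses. 4) Unreached endpoint = highest concentration. GI50 marks 50% less growth.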 Calls of active or inactive are those of the source. Cut-off read from the data, not from the text of the source: active = GI50 up to about 1.1 µM and inactive = higher.

Legend:
Test in all cases: NCI-60 cell line screen, 48 h
RXF 393 = tested on: RXF 393
BT-549 = tested on: BT-549
SF-539 = tested on: SF-539
NCI-H226 = tested on: NCI-H226
SK-MEL-2 = tested on: SK-MEL-2
TK-10 = tested on: TK-10
MCF7 = tested on: MCF7
HOP-62 = tested on: HOP-62
SNB-75 = tested on: SNB-75
LOX IMVI = tested on: LOX IMVI
KM12 = tested on: KM12
CAKI-1 = tested on: CAKI-1
M14 = tested on: M14
Malme-3M = tested on: Malme-3M
A498 = tested on: A498
SW-620 = tested on: SW-620
COLO 205 = tested on: COLO 205
CCRF-CEM = tested on: CCRF-CEM
MDA-MB-435 = tested on: MDA-MB-435
PC-3 = tested on: PC-3
ACHN = tested on: ACHN
MOLT-4 = tested on: MOLT-4
U-251 = tested on: U-251
OVCAR-5 = tested on: OVCAR-5
NCI/ADR-RES = tested on: NCI/ADR-RES
DU-145 = tested on: DU-145
SK-MEL-28 = tested on: SK-MEL-28
SNB-19 = tested on: SNB-19
HT-29 = tested on: HT-29
UACC-62 = tested on: UACC-62
HL-60 = tested on: HL-60
OVCAR-3 = tested on: OVCAR-3
MDA-N = tested on: MDA-N
SK-OV-3 = tested on: SK-OV-3
SF-268 = tested on: SF-268
OVCAR-4 = tested on: OVCAR-4
NCI-H23 = tested on: NCI-H23
RPMI-8226 = tested on: RPMI-8226
NCI-H460 = tested on: NCI-H460
T47D = tested on: T47D
Hs-578T = tested on: Hs-578T
NCI-H522 = tested on: NCI-H522
K562 = tested on: K562
MDA-MB-231 = tested on: MDA-MB-231
SR = tested on: SR
A549 = tested on: A549
HCT-15 = tested on: HCT-15
SN12C = tested on: SN12C
OVCAR-8 = tested on: OVCAR-8
IGROV-1 = tested on: IGROV-1
SF-295 = tested on: SF-295
UACC-257 = tested on: UACC-257
SK-MEL-5 = tested on: SK-MEL-5
786-0 = tested on: 786-0
HCT-116 = tested on: HCT-116
HOP-92 = tested on: HOP-92
EKVX = tested on: EKVX
UO-31 = tested on: UO-31

FC(F)(F)c1nc2nc(Cl)c(Cl)nc2n1CCCN1CCOCC1
GI50 (RXF 393): 25.4 µM (inactive) | GI50 (BT-549): 56 µM (inactive) | GI50 (SF-539): 72.4 µM (inactive) | GI50 (NCI-H226): > 100 µM (inactive) | GI50 (SK-MEL-2): 37.9 µM (inactive) | GI50 (TK-10): > 100 µM (inactive) | GI50 (MCF7): 53.1 µM (inactive) | GI50 (HOP-62): > 100 µM (inactive) | GI50 (SNB-75): 79.3 µM (inactive) | GI50 (LOX IMVI): 30.4 µM (inactive) | GI50 (KM12): > 100 µM (inactive) | GI50 (CAKI-1): 3.71 µM (inactive) | GI50 (M14): 48.2 µM (inactive) | GI50 (Malme-3M): 56 µM (inactive) | GI50 (A498): 97.5 µM (inactive) | GI50 (SW-620): 42.9 µM (inactive) | GI50 (COLO 205): 54.6 µM (inactive) | GI50 (CCRF-CEM): 24.7 µM (inactive) | GI50 (MDA-MB-435): 44.9 µM (inactive) | GI50 (PC-3): 61.2 µM (inactive) | GI50 (ACHN): > 100 µM (inactive) | GI50 (MOLT-4): 13 µM (inactive) | GI50 (U-251): 65.9 µM (inactive) | GI50 (OVCAR-5): > 100 µM (inactive) | GI50 (NCI/ADR-RES): > 100 µM (inactive) | GI50 (DU-145): 24.9 µM (inactive) | GI50 (SK-MEL-28): 33.7 µM (inactive) | GI50 (SNB-19): 51.4 µM (inactive) | GI50 (HT-29): 66.8 µM (inactive) | GI50 (UACC-62): 50.6 µM (inactive) | GI50 (HL-60): 19.1 µM (inactive) | GI50 (OVCAR-3): 64.3 µM (inactive) | GI50 (MDA-N): 35.7 µM (inactive) | GI50 (SK-OV-3): > 100 µM (inactive) | GI50 (SF-268): 40.4 µM (inactive) | GI50 (OVCAR-4): 55.5 µM (inactive) | GI50 (NCI-H23): 34.7 µM (inactive) | GI50 (RPMI-8226): 23.4 µM (inactive) | GI50 (NCI-H460): 52 µM (inactive) | GI50 (T47D): 47 µM (inactive) | GI50 (Hs-578T): 33.7 µM (inactive) | GI50 (NCI-H522): 29.4 µM (inactive) | GI50 (K562): 14.2 µM (inactive) | GI50 (MDA-MB-231): 78.2 µM (inactive) | GI50 (SR): 0.489 µM (active) | GI50 (A549): > 100 µM (inactive) | GI50 (HCT-15): 29 µM | GI50 (SN12C): 84.9 µM (inactive) | GI50 (OVCAR-8): 29.3 µM (inactive) | GI50 (IGROV-1): 26.4 µM (inactive) | GI50 (SF-295): > 100 µM (inactive) | GI50 (UACC-257): 24 µM (inactive) | GI50 (SK-MEL-5): 61.5 µM (inactive) | GI50 (786-0): > 100 µM (inactive) | GI50 (HCT-116): 41.9 µM (inactive) | GI50 (HOP-92): 32 µM (inactive) | GI50 (EKVX): 23.4 µM (inactive)

C[C@H]1C(=O)C2=C[C@H]1CCC(=O)[C@]1(C)CCCC(C)(C)[C@H]1C[C@H]2O
GI50 (RXF 393): 11.5 µM (inactive) | GI50 (BT-549): 28.2 µM (inactive) | GI50 (SF-539): 15.4 µM (inactive) | GI50 (NCI-H226): 19.7 µM (inactive) | GI50 (SK-MEL-2): > 100 µM (inactive) | GI50 (TK-10): 15.3 µM (inactive) | GI50 (MCF7): 13.7 µM (inactive) | GI50 (HOP-62): 97.5 µM (inactive) | GI50 (SNB-75): 16.7 µM (inactive) | GI50 (LOX IMVI): 17.3 µM (inactive) | GI50 (KM12): 19 µM (inactive) | GI50 (CAKI-1): 22.4 µM (inactive) | GI50 (M14): 13.2 µM (inactive) | GI50 (Malme-3M): 20.6 µM (inactive) | GI50 (A498): 12.1 µM (inactive) | GI50 (SW-620): 14.9 µM (inactive) | GI50 (COLO 205): 14.3 µM (inactive) | GI50 (CCRF-CEM): 15.8 µM (inactive) | GI50 (MDA-MB-435): 31.2 µM (inactive) | GI50 (PC-3): 33.3 µM (inactive) | GI50 (ACHN): 17.3 µM (inactive) | GI50 (MOLT-4): 22.1 µM (inactive) | GI50 (U-251): 15.1 µM (inactive) | GI50 (OVCAR-5): 25.4 µM (inactive) | GI50 (NCI/ADR-RES): 21.5 µM (inactive) | GI50 (DU-145): 28.2 µM (inactive) | GI50 (SK-MEL-28): 40.1 µM (inactive) | GI50 (SNB-19): > 100 µM (inactive) | GI50 (HT-29): 13.9 µM (inactive) | GI50 (UACC-62): 36.5 µM (inactive) | GI50 (HL-60): 16 µM (inactive) | GI50 (OVCAR-3): 29.2 µM (inactive) | GI50 (MDA-N): 31.6 µM (inactive) | GI50 (SK-OV-3): 39.6 µM (inactive) | GI50 (UO-31): 27.4 µM (inactive) | GI50 (SF-268): 20.5 µM (inactive) | GI50 (OVCAR-4): 48.6 µM (inactive) | GI50 (NCI-H23): 21.8 µM (inactive) | GI50 (RPMI-8226): 12.5 µM (inactive) | GI50 (NCI-H460): 21.9 µM (inactive) | GI50 (T47D): 17.6 µM (inactive) | GI50 (Hs-578T): 19 µM (inactive) | GI50 (NCI-H522): 0.986 µM (active) | GI50 (K562): 12.4 µM (inactive) | GI50 (MDA-MB-231): 5.38 µM (inactive) | GI50 (SR): 17.5 µM (inactive) | GI50 (A549): 19 µM (inactive) | GI50 (HCT-15): 14.3 µM | GI50 (SN12C): 26.9 µM (inactive) | GI50 (OVCAR-8): 17.5 µM (inactive) | GI50 (IGROV-1): 37.9 µM (inactive) | GI50 (SF-295): 33.3 µM (inactive) | GI50 (UACC-257): 32.3 µM (inactive) | GI50 (786-0): 17.1 µM (inactive) | GI50 (HCT-116): 31.7 µM (inactive) | GI50 (HOP-92): 24.3 µM (inactive) | GI50 (EKVX): 13.1 µM (inactive)
